Reference: ChEMBL document CHEMBL6109107, “Exploring the broad-spectrum activity of carbohydrate-based Iberin analogues: From anticancer effect to antioxidant properties” (Eur J Med Chem, 2025)
The source made the active and inactive calls. The rule behind the calls is not given here.

Columns and labels:
[1] = Cytotoxicity against human HaCaT cells assessed as reduction in cell viability incubated for 72 hrs by resazurin dye based assay; assay type: toxicity
[2] = system: A549; test: Cytotoxicity against human A549 cells assessed as reduction in cell viability incubated for 72 hrs by resazurin dye based assay; assay type: functional; settings: A549, 72 h
[3] = system: MeWo; test: Cytotoxicity against human MeWo cells assessed as reduction in cell viability incubated for 72 hrs by resazurin dye based assay; assay type: functional
[4] = system: T-24; test: Cytotoxicity against human T24 cells assessed as reduction in cell viability incubated for 72 hrs by resazurin dye based assay; assay type: functional; settings: T-24, 72 h
[5] = Selectivity index, ratio of IC50 for human HaCaT cells to IC50 for human A549 cells; assay type: toxicity; settings: HaCaT cells versus A549 cells, read-out: Ratio IC50
[6] = Selectivity index, ratio of IC50 for human HaCaT cells to IC50 for human MeWo cells; assay type: toxicity; settings: HaCaT cells versus MeWo cells, read-out: Ratio IC50
[7] = Selectivity index, ratio of IC50 for human HaCaT cells to IC50 for human T24 cells; assay type: toxicity; settings: HaCaT cells versus T24 cells, read-out: Ratio IC50
[8] = system: A549; test: Cytotoxicity against human A549 cells assessed as inhibition of cell growth incubated for 72 hrs by MTT assay; assay type: functional, cell-based; settings: A549, 72 h
[9] = Cytotoxicity against human Arec32 cells assessed as cell viability by MTT assay; assay type: toxicity, cell-based
[10] = system: Arec32; test: Induction of Nrf2 activity in human Arec32 cells assessed as drug concentration required to double luciferase expression incubated for 24 hrs by luminescence based plate reader analysis; assay type: cell-based; settings: filed as activator
[11] = system: Arec32; test: Induction of Nrf2 activity in human Arec32 cells assessed as increase in luciferase expression at >30 uM incubated for 24 hrs by luminescence based plate reader analysis; assay type: cell-based

Structure (SMILES): CSCCCN=C=S
- IC50 at 72 h [1]: 43.9 µM
- IC50 [2]: 31.1 µM
- IC50 [3]: 31.6 µM
- IC50 [4]: 14.4 µM
- selectivity ratio [5]: 1.7
- selectivity ratio [6]: 1.5
- selectivity ratio [7]: 3.2
- IC50 [8]: 48 µM
- EC50 [9]: > 30 µM
- CD [10]: 2.94 µM

Structure (SMILES): CC(=O)OC[C@H]1O[C@@H](N=C=S)[C@H](OC(C)=O)[C@@H](Sc2ccccc2)[C@@H]1OC(C)=O
- IC50 at 72 h [1]: 23.2 µM
- IC50 [2]: 24.9 µM
- IC50 [3]: 29.1 µM
- IC50 [4]: 19.4 µM
- selectivity ratio [5]: 1
- selectivity ratio [6]: 0.9
- selectivity ratio [7]: 1.2
- EC50 [9]: > 30 µM
- Activity [11]: inactive

Structure (SMILES): CC(=O)OC[C@H]1O[C@@H](N=C=S)[C@H](OC(C)=O)[C@@H](S(C)(=O)=O)[C@@H]1OC(C)=O
- IC50 at 72 h [1]: 40.1 µM
- IC50 [2]: 62.8 µM
- IC50 [3]: 39 µM
- IC50 [4]: 19.9 µM
- selectivity ratio [5]: 0.6
- selectivity ratio [6]: 1.2
- selectivity ratio [7]: 2
- EC50 [9]: > 30 µM
- CD [10]: 6.21 µM

Structure (SMILES): CCS[C@@H]1[C@@H](OC(C)=O)[C@H](N=C=S)O[C@H](COC(C)=O)[C@H]1OC(C)=O
- IC50 at 72 h [1]: 46.3 µM
- IC50 [2]: 48.8 µM
- IC50 [3]: 50 µM
- IC50 [4]: 31.5 µM
- selectivity ratio [5]: 0.9
- selectivity ratio [6]: 0.9
- selectivity ratio [7]: 1.5
- EC50 [9]: > 30 µM
- Activity [11]: inactive

Structure (SMILES): CC(C)(C)c1cc(O)ccc1O [E319]
- EC50 [9]: > 30 µM
- CD [10]: 1.68 µM

Structure (SMILES): CCS(=O)(=O)[C@@H]1[C@@H](OC(C)=O)[C@H](N=C=S)O[C@H](COC(C)=O)[C@H]1OC(C)=O
- IC50 at 72 h [1]: 35.2 µM
- IC50 [2]: 54.7 µM
- IC50 [3]: 33 µM
- IC50 [4]: 18 µM
- selectivity ratio [5]: 0.6
- selectivity ratio [6]: 1.1
- selectivity ratio [7]: 2
- EC50 [9]: > 30 µM
- CD [10]: 10.4 µM

Structure (SMILES): Nc1ccn([C@@H]2O[C@H](CO)[C@@H](O)C2(F)F)c(=O)n1 [GEMCITABINE]
- IC50 at 72 h [1]: 7.1 µM
- IC50 [2]: 3 µM
- IC50 [3]: 5.2 µM
- IC50 [4]: 2.1 µM
- selectivity ratio [5]: 2.6
- selectivity ratio [6]: 1.6
- selectivity ratio [7]: 4.2

Structure (SMILES): CC(=O)OC[C@H]1O[C@@H](N=C=S)[C@H](OC(C)=O)[C@@H](OC(C)=O)[C@@H]1OC(C)=O
- IC50 at 72 h [1]: 71.4 µM
- IC50 [2]: 64.6 µM
- IC50 [3]: 58.1 µM
- IC50 [4]: 48.7 µM
- selectivity ratio [5]: 1.1
- selectivity ratio [6]: 1.2
- selectivity ratio [7]: 1.5
- EC50 [9]: > 30 µM
- Activity [11]: inactive

Structure (SMILES): CC[S+]([O-])[C@@H]1[C@@H](OC(C)=O)[C@H](N=C=S)O[C@H](COC(C)=O)[C@H]1OC(C)=O (mixture of isomers)
- IC50 at 72 h [1]: 141 µM
- IC50 [2]: 155 µM
- IC50 [3]: 118 µM
- IC50 [4]: 113 µM
- selectivity ratio [5]: 0.9
- selectivity ratio [6]: 1.1
- selectivity ratio [7]: 1.1
- EC50 [9]: > 30 µM
- CD [10]: 6.32 µM

Structure (SMILES): C[S+]([O-])CCCN=C=S (racemic)
- IC50 at 72 h [1]: 33 µM
- IC50 [2]: 20.7 µM
- IC50 [3]: 32.8 µM
- IC50 [4]: 12.2 µM
- selectivity ratio [5]: 1.8
- selectivity ratio [6]: 1
- selectivity ratio [7]: 2.9
- IC50 [8]: 30.2 µM
- EC50 [9]: > 30 µM
- CD [10]: 3.12 µM

Structure (SMILES): CC(=O)OC[C@H]1O[C@@H](N=C=S)[C@H](OC(C)=O)[C@@H]([S@@+]([O-])c2ccccc2)[C@@H]1OC(C)=O
- IC50 at 72 h [1]: 59.1 µM
- IC50 [2]: 74.9 µM
- IC50 [3]: 67.5 µM
- IC50 [4]: 56.7 µM
- selectivity ratio [5]: 0.8
- selectivity ratio [6]: 0.9
- selectivity ratio [7]: 1.1
- EC50 [9]: > 30 µM
- CD [10]: 1.55 µM

Structure (SMILES): CC(=O)OC[C@H]1O[C@@H](N=C=S)[C@H](OC(C)=O)[C@@H]([S+](C)[O-])[C@@H]1OC(C)=O (mixture of isomers)
- IC50 at 72 h [1]: 180 µM
- IC50 [2]: 183 µM
- IC50 [3]: 178 µM
- IC50 [4]: 159 µM
- selectivity ratio [5]: 1
- selectivity ratio [6]: 1
- selectivity ratio [7]: 1.1
- EC50 [9]: > 30 µM
- CD [10]: 5.75 µM

Structure (SMILES): CC(=O)OC[C@H]1O[C@@H](N=C=S)[C@H](OC(C)=O)[C@@H](S(=O)(=O)c2ccccc2)[C@@H]1OC(C)=O
- IC50 at 72 h [1]: 27.5 µM
- IC50 [2]: 40.3 µM
- IC50 [3]: 22.9 µM
- IC50 [4]: 16.8 µM
- selectivity ratio [5]: 0.7
- selectivity ratio [6]: 1.2
- selectivity ratio [7]: 1.6
- EC50 [9]: > 30 µM
- CD [10]: 2.09 µM

Structure (SMILES): CS[C@@H]1[C@@H](OC(C)=O)[C@H](N=C=S)O[C@H](COC(C)=O)[C@H]1OC(C)=O
- IC50 at 72 h [1]: 45.3 µM
- IC50 [2]: 47.9 µM
- IC50 [3]: 47 µM
- IC50 [4]: 30.9 µM
- selectivity ratio [5]: 0.9
- selectivity ratio [6]: 1
- selectivity ratio [7]: 1.5
- EC50 [9]: > 30 µM
- Activity [11]: inactive

Structure (SMILES): CS(=O)(=O)CCCN=C=S
- IC50 at 72 h [1]: 35.9 µM
- IC50 [2]: 25.2 µM
- IC50 [3]: 29.5 µM
- IC50 [4]: 10.7 µM
- selectivity ratio [5]: 1.9
- selectivity ratio [6]: 1.3
- selectivity ratio [7]: 3.3
- EC50 [9]: > 30 µM
- CD [10]: 3.22 µM

Structure (SMILES): CC(=O)OC[C@H]1O[C@@H](N=C=S)[C@H](OC(C)=O)[C@@H]([S@+]([O-])c2ccccc2)[C@@H]1OC(C)=O
- IC50 at 72 h [1]: 61.2 µM
- IC50 [2]: 58.9 µM
- IC50 [3]: 57.4 µM
- IC50 [4]: 48.9 µM
- selectivity ratio [5]: 1
- selectivity ratio [6]: 1.1
- selectivity ratio [7]: 1.3
- EC50 [9]: > 30 µM
- CD [10]: 2.09 µM
